Results as given in ChEMBL document CHEMBL1201862, “PubChem BioAssay data set” (2004).
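Results reflect a 48-hour exposure of cells in 96-well plates to compound at five concentrations. GI50: concentration for 50% inhibition of growth.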 Calls of active or inactive are those of the source. Rule as the data show it: active = GI50 up to about 1.1 µM and inactive = higher.

Legend:
Assay in all cases: NCI-60 cell line screen, 48 h
A549 = tested on: A549
EKVX = tested on: EKVX
HCT-15 = tested on: HCT-15
HOP-62 = tested on: HOP-62
KM12 = tested on: KM12
LOX IMVI = tested on: LOX IMVI
MDA-MB-231 = tested on: MDA-MB-231
OVCAR-8 = tested on: OVCAR-8
RPMI-8226 = tested on: RPMI-8226
SF-268 = tested on: SF-268
SF-295 = tested on: SF-295
SF-539 = tested on: SF-539
SK-MEL-28 = tested on: SK-MEL-28
SK-MEL-2 = tested on: SK-MEL-2
U-251 = tested on: U-251
UACC-257 = tested on: UACC-257
UACC-62 = tested on: UACC-62
HL-60 = tested on: HL-60
SK-OV-3 = tested on: SK-OV-3
T47D = tested on: T47D

| Compound | GI50 (A549) | GI50 (EKVX) | GI50 (HCT-15) | GI50 (HOP-62) | GI50 (KM12) | GI50 (LOX IMVI) | GI50 (MDA-MB-231) | GI50 (OVCAR-8) | GI50 (RPMI-8226) | GI50 (SF-268) | GI50 (SF-295) | GI50 (SF-539) | GI50 (SK-MEL-28) | GI50 (SK-MEL-2) | GI50 (U-251) | GI50 (UACC-257) | GI50 (UACC-62) | GI50 (HL-60) | GI50 (SK-OV-3) | GI50 (T47D) |
| --- | --- | --- | --- | --- | --- | --- | --- | --- | --- | --- | --- | --- | --- | --- | --- | --- | --- | --- | --- | --- |
| Cc1sc2nc(-c3cc([N+](=O)[O-])c(Cl)cc3Cl)c(/C=N/NC(=N)N)n2c1C | 22.9 µM (inactive) | 19.8 µM (inactive) | 3.61 µM | 7.66 µM (inactive) | 3.63 µM (inactive) | 2.29 µM (inactive) | 6.61 µM (inactive) | 5.7 µM (inactive) | 4.5 µM (inactive) | 10.5 µM (inactive) | 13 µM (inactive) | 30.5 µM (inactive) | 2.4 µM (inactive) | 1.97 µM (inactive) | 4.02 µM (inactive) | 10 µM (inactive) | 14.7 µM (inactive) |  |  |  |
| CCC(=O)Nc1ccc(NCC(=O)Nc2ccc(Cl)cc2)cc1 | 19.7 µM (inactive) | 14 µM (inactive) | 14.4 µM | 13.7 µM (inactive) | 12.7 µM (inactive) | 13.1 µM (inactive) |  | 27.5 µM (inactive) | 21.2 µM (inactive) | 22.6 µM (inactive) | 14.4 µM (inactive) | 18.1 µM (inactive) | 19.9 µM (inactive) | 14.8 µM (inactive) |  | 16.6 µM (inactive) | 12.4 µM (inactive) | 14.1 µM (inactive) | 16.9 µM (inactive) | 12.8 µM (inactive) |
| O=C1N(CN2CCOCC2)CN(CN2CCOCC2)C(=O)N1Cc1ccc(-c2ccc(CN3C(=O)N(CN4CCOCC4)CN(CN4CCOCC4)C3=O)cc2)cc1 | 20.8 µM (inactive) | 21.7 µM (inactive) | 9.55 µM | 21.6 µM (inactive) | 4.73 µM (inactive) | 10 µM (inactive) | 26.5 µM (inactive) | 20.5 µM (inactive) |  | 14.2 µM (inactive) | 23.2 µM (inactive) | > 27.8 µM (inactive) | 12.9 µM (inactive) | 6.55 µM (inactive) | 16.1 µM (inactive) | 13.8 µM (inactive) | 9.75 µM (inactive) |  | 32.9 µM (inactive) | 24 µM (inactive) |
| O=c1[nH]c(=O)n(C2OC(CO)C(O)C2O)c2ncc(-c3ccc(-c4ccccc4)cc3)nc12 (stereo unspecified) | > 20 µM (inactive) | > 20 µM (inactive) | > 20 µM | > 20 µM (inactive) | > 20 µM (inactive) | > 20 µM (inactive) | > 20 µM (inactive) | > 20 µM (inactive) | > 20 µM (inactive) | > 20 µM (inactive) | > 20 µM (inactive) | > 20 µM (inactive) |  | > 20 µM (inactive) | > 20 µM (inactive) | > 20 µM (inactive) | > 20 µM (inactive) |  | > 20 µM (inactive) | > 20 µM (inactive) |
| C=CCN(CC=C)Cn1c(=S)sc2ccccc21 | > 100 µM (inactive) | > 100 µM (inactive) | 45 µM | > 100 µM (inactive) | > 100 µM (inactive) | 17.8 µM (inactive) | 54.3 µM (inactive) | > 100 µM (inactive) |  | > 100 µM (inactive) | > 100 µM (inactive) | 55.6 µM (inactive) | 37.5 µM (inactive) | > 100 µM (inactive) | > 100 µM (inactive) | > 100 µM (inactive) | 55.1 µM (inactive) | 16.5 µM (inactive) | 91.4 µM (inactive) |  |
| Cc1ccc(S(=O)(=O)NC(=O)Nc2ccc(S(N)(=O)=O)cc2S(N)(=O)=O)cc1 | > 100 µM (inactive) | > 100 µM (inactive) | > 100 µM | > 100 µM (inactive) | > 100 µM (inactive) | > 100 µM (inactive) | > 100 µM (inactive) | > 100 µM (inactive) | > 100 µM (inactive) | > 100 µM (inactive) | > 100 µM (inactive) |  | > 100 µM (inactive) | > 100 µM (inactive) | > 100 µM (inactive) | > 100 µM (inactive) | > 100 µM (inactive) | > 100 µM (inactive) | > 100 µM (inactive) |  |
| O=c1[nH]n(Cc2ccccc2Cl)c2ccc([N+](=O)[O-])cc12 | 37.8 µM (inactive) | 58.7 µM (inactive) | 58.6 µM | 75.9 µM (inactive) | 63.5 µM (inactive) | > 100 µM (inactive) | 39.4 µM (inactive) | 42.3 µM (inactive) | 45.1 µM (inactive) | 49.9 µM (inactive) |  | 54.2 µM (inactive) | 55.8 µM (inactive) | 34.7 µM (inactive) | 75.9 µM (inactive) | > 100 µM (inactive) | 43.4 µM (inactive) | 31.6 µM (inactive) |  |  |
| COC(=O)c1ccccc1/C=C1\Cc2c(C)c3c(c(C)c2C1=O)CCC3 | > 100 µM (inactive) | > 100 µM (inactive) | > 100 µM | > 100 µM (inactive) | > 100 µM (inactive) | > 100 µM (inactive) |  | > 100 µM (inactive) | > 100 µM (inactive) | 64.1 µM (inactive) | > 100 µM (inactive) | 88.9 µM (inactive) | > 100 µM (inactive) | 6.27 µM (inactive) | 37.8 µM (inactive) | > 100 µM (inactive) | > 100 µM (inactive) | > 100 µM (inactive) |  | > 100 µM (inactive) |
| CN1c2ccccc2N(C(=O)c2ccccc2)C(CC(=O)O)c2cccn21 (stereo unspecified) | > 100 µM (inactive) | > 100 µM (inactive) | > 100 µM | > 100 µM (inactive) | > 100 µM (inactive) | > 100 µM (inactive) |  | > 100 µM (inactive) | > 100 µM (inactive) | > 100 µM (inactive) | > 100 µM (inactive) | > 100 µM (inactive) | > 100 µM (inactive) | > 100 µM (inactive) | > 100 µM (inactive) | > 100 µM (inactive) | 55.3 µM (inactive) | > 100 µM (inactive) | > 100 µM (inactive) |  |
| Cc1cc(OC(=O)Nc2ccc(Cl)cc2)ccc1C(=S)Nc1ccccc1 | 50.2 µM (inactive) | 60.3 µM (inactive) | 68.1 µM | > 100 µM (inactive) | 8.93 µM (inactive) | 29.3 µM (inactive) |  | > 100 µM (inactive) | > 100 µM (inactive) | 47.9 µM (inactive) | 38.5 µM (inactive) | > 100 µM (inactive) | 71.1 µM (inactive) | 66.2 µM (inactive) | > 100 µM (inactive) | 23.2 µM (inactive) | 3.85 µM (inactive) | 14 µM (inactive) | > 100 µM (inactive) | 34.2 µM (inactive) |
| CC(C)(C)C1CC[C@H](O)[C@H]([C@H](O)CC2CC(=O)N(c3ccccc3)C(=O)C2)C1 (stereo partly specified) | > 100 µM (inactive) | > 100 µM (inactive) | > 100 µM | 74.6 µM (inactive) | > 100 µM (inactive) | > 100 µM (inactive) | > 100 µM (inactive) | > 100 µM (inactive) |  | > 100 µM (inactive) | 63.7 µM (inactive) | > 100 µM (inactive) | > 100 µM (inactive) |  | > 100 µM (inactive) | > 100 µM (inactive) | 31.5 µM (inactive) | > 100 µM (inactive) |  |  |
| CCOC(OC1=C(C#N)CCC1)C(C)[Se]c1ccccc1 (stereo unspecified) | 67.8 µM (inactive) | 30.5 µM (inactive) | 15.9 µM | > 100 µM (inactive) | 92.9 µM (inactive) | 10 µM (inactive) |  | 18.7 µM (inactive) | 23.3 µM (inactive) | 19.8 µM (inactive) | 22.2 µM (inactive) | 21.6 µM (inactive) | 40.6 µM (inactive) | 16.8 µM (inactive) | 6.41 µM (inactive) | 62.8 µM (inactive) | 18.5 µM (inactive) | 21 µM (inactive) | > 100 µM (inactive) |  |
| CCCSc1ccc2[nH]c(/N=C/c3ccccc3)cc2c1 |  | 26.9 µM (inactive) | 29 µM |  |  | 17.4 µM (inactive) |  | 23.3 µM (inactive) | 14.8 µM (inactive) | 19.7 µM (inactive) |  | 20.5 µM (inactive) | 23.7 µM (inactive) | 16.6 µM (inactive) |  | 19.7 µM (inactive) | 17.4 µM (inactive) |  |  | 48 µM (inactive) |
| CC[C@H]1C=CCC[C@@]2(C[C@@H]3CC[C@H]4[C@@H](C(=O)OCCCCCCCCCCCCCCCC(=O)N(CCCN)C[C@@H](O)CCN)[C@@]5(CCC[C@@H](C)O5)NC(=[N+]34)N2)O1 | 1.77 µM (inactive) | 1.76 µM (inactive) | > 10 µM | 1.69 µM (inactive) | 1.57 µM (inactive) | 1.91 µM (inactive) |  | 2.36 µM (inactive) | 1.07 µM (active) | 1.93 µM (inactive) | 1.9 µM (inactive) | 1.4 µM (inactive) | 1.36 µM (inactive) | 1.7 µM (inactive) | 1.64 µM (inactive) | 1.75 µM (inactive) | 1.78 µM (inactive) | 2.14 µM (inactive) | 1.8 µM (inactive) |  |
| CC1OC(OC2C(O)COC(OC3C(C)OC(OC4C(OC(=O)[C@]56CCC(C)(C)C[C@@H]5C5=CCC7[C@@]8(C)C[C@H](O)[C@H](OC9OC(CO)C(O)C(OC%10OC(CO)C(O)C(O)C%10O)C9O)[C@@](C)(CO)[C@@H]8CC[C@@]7(C)[C@]5(C)CC6)OCC(O)C4O)C(O)C3OC3OCC(O)(CO)C3O)C2O)C(O)C(O)C1O (stereo partly specified) | 6.61 µM (inactive) | 5.83 µM (inactive) | 7.71 µM | 9.95 µM (inactive) | 9.48 µM (inactive) | 8.51 µM (inactive) | 8.05 µM (inactive) | 9.84 µM (inactive) | 13.6 µM (inactive) | 10 µM (inactive) | 9.66 µM (inactive) | 8.83 µM (inactive) | 6.24 µM (inactive) |  | 10.4 µM (inactive) | 9.1 µM (inactive) | 12.9 µM (inactive) |  | 9.29 µM (inactive) | 6.92 µM (inactive) |
